Laboratory results published in US20180147206A1, “ACTIVATION OF NEURONAL STORE-OPERATED CALCIUM ENTRY PATHWAY FOR THE TREATMENT OF ALZHEIMER'S DISEASE” (The Board of Regents of the University of Texas System, priority 2015, published 2018).
Values belong to the compound of their own block, whether it stands above or below them.

How the values were obtained:
[1] = test system: spine nSOC channels; assay: GCamp5.3 Ca2+ imaging of synaptic nSOC in cultured hippocampal neurons; type: cell-based, mouse
[2] = test system: mushroom spines of hippocampal neurons; assay: Dendritic spine analysis in primary hippocampal neural cultures; type: cell-based, mouse; details: for mushroom spine loss: 30 nM for 16 hours
Method: FIGS. 4A-E. NSN21778 and Hyperforin rescue synaptic nSOC and mushroom spine loss in AD hippocampal neurons. (FIG. 4A) Chemical structure of NSN21778 and Hyperforin. (FIG. 4B) Time-course of GCaMP5.3 fluorescence signal changes in the spines of wild-type, PS1KI and APPKI hippocampal neurons. The time of extracellular Ca^2+ re-addition is indicated by a black bar above the traces. 100 μM DHPG was added 50 sec prior to Ca^2+ re-addition. The results are shown for control (CON) neurons and for neurons pretreated with 300 nM NSN21778 (+NSN) or 300 nM Hyperforin (+Hyp) for 30 min as indicated. For each experimental group individual spine (grey) and average (red) fluorescence traces are shown. (FIG. 4C) The average nSOC spine peak amplitude is shown for each group of cells shown on panel B. The mean AF/Fo signals for each group and presented as mean±SE (n≥45 spines). ***, p <0.001. (FIG. 4D) Confocal images of wild-type, PS1KI and APPKI hippocampal neurons transfected with TD-Tomato and fixed at DIV15-16. The images are shown for control neurons (CON) and for neurons treated with 30 nM NSN21778 (+NSN) or 30 nM Hyperforin (+Hyp) for 16 hours prior to fixation. Scale bar is 10 μm. (FIG. 4E) The average fraction of mushroom spines for each group of cells shown on FIG. 4D is presented as mean±SE (n≥18 neurons). ***, p <0.001.
FIGS. 5A-E. TRPC6 is a molecular target for NSN21778 and Hyperforin. (FIGS. 5A-B) Time course of Fura-2 Ca^2+ signals is shown for HEK293 cells transfected with EGFP plasmid (GFP) or combination of EGFP and TRPC6 plasmids (TRPC6). Cells were incubated in ACSF media containing 2 mM Ca^2+. In experiments shown in FIG. 5B, cells were moved to modified ACSF media containing 0.1 mM Ca^2+ for 2 min and then returned to the media containing 2 mM Ca^2+ with addition of 100 μM OAG. The time of addition of 1 μM Hyperforin (Hyp) or NSN21778 (NSN) is indicated by red bars above the Fura-2 traces. For each experimental group individual spine (grey) and average (red) fluorescence traces are shown. (FIG. 5C) The average Ca^2+ influx peak is shown for experiments presented on FIGS. 5A-B as mean±SE (n≥81). (FIG. 5D) Confocal images of wild-type and PS1KI hippocampal neurons transfected with TD-Tomato and fixed at DIV15-16. The neurons were infected with lentiviruses encoding control RNAi (siCtrl), RNAi against TRPC6 (siT6) or RNAi against Orai2 (siO2). The images are shown for no drug treated neurons (CON) and for neurons treated with 30 nM NSN21778 (+NSN) or 30 nM Hyperforin (+Hyp) for 16 hours prior to fixation. Scale bar is 10 μm. No drug treated group of wild-type and PS1KI neurons is from the same experiment as shown on FIG. 2A-J. (FIG. 5E) The average fraction of mushroom spines for each group of cells shown on panel A is presented as mean±SE (n≥19 neurons). ***, p <0.001.
Dendritic Spine Analysis in Primary Hippocampal Neural Cultures. The hippocampal cultures of PS1KI, APPKI and WT mice were established from postnatal day 0-1 pups and maintained in culture as the inventors described previously [Zhang, 2010 #5733]. For assessment of synapse morphology, hippocampal cultures were transfected with TD-Tomato plasmid at DIV7 using the calcium phosphate method and fixed (4% formaldehyde, 4% sucrose in PBS, pH 7.4) at DIV15-16. A Z-stack of optical section was captured using 100× objective with a confocal microscope (Carl Zeiss Axiovert 100M with LSM510). 18-20 cultured neurons from three batches of cultures were used for quantitative analysis per genotype. Quantitative analysis for dendritic spines was performed by using NeuronStudio software package [Rodriguez, 2008 #6276]. To classify the shape of neuronal spines in culture, the inventors adapted an algorithm from published method [Rodriguez, 2008 #6276]. In classification of spine shapes the inventors used the following cutoff values: aspect ratio for thin spines (AR_thin(crio))=2.5, head to neck ratio (HNR(crit))=1.4, and head diameter (HD(crit))=0.5 μm. […]

[3] = target: T1, TRPC6 (Homo sapiens, UniProt Q9Y210); assay: Fura-2 Ca2+ imaging in TRPC6-transfected HEK293 cells; type: cell-based; details: for Ca2+ influx: 1 μM; for Ca2+ influx response: TRPC6-transfected cells, 100 μM
T1 construct: expressed in transfected cells; host or cells: HEK293
T1 sequence (Q9Y210 1-931): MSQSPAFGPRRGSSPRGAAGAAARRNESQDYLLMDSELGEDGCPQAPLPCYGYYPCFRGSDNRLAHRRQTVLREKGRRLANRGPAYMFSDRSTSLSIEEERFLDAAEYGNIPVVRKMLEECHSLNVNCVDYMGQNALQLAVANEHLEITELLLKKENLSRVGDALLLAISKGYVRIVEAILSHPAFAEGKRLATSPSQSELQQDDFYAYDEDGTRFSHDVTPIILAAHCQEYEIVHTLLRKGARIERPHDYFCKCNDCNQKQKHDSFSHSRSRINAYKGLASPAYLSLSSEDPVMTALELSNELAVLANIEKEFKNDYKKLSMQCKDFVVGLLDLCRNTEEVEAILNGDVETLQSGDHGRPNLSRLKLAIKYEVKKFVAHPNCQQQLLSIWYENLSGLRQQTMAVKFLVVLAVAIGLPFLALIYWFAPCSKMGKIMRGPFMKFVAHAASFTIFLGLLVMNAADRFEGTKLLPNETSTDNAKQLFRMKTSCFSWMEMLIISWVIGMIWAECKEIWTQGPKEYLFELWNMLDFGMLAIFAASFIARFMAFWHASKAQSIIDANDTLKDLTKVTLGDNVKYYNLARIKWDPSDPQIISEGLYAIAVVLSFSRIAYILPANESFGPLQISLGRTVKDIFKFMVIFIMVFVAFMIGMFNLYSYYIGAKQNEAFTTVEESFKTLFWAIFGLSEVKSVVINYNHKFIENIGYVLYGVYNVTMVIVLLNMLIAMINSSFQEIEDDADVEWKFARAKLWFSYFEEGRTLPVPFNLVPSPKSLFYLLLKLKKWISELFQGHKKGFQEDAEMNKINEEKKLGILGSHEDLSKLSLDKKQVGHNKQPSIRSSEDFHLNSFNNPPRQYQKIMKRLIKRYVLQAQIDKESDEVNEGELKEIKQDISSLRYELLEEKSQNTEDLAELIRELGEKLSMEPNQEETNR

[4] = test system: hippocampal neurons
[5] = test system: AβPPSwe/PSEN1ΔE9 (AβPP/PS1) transgenic mice; details: previous studies; cited from earlier work
[6] = test system: TRPC3/6/7 channels; details: recent study (Montecinos-Oliva et al., 2014); cited from earlier work

Compound: CC(C)=CCC[C@]1(C)[C@@H](CC=C(C)C)C[C@@]2(CC=C(C)C)C(=O)[C@]1(C(=O)C(C)C)C(=O)C(CC=C(C)C)=C2O [Hyperforin]
spine nSOC ([1]; PS1KI and APPKI hippocampal neurons, 300 nM applied prior to Ca2+ re-addition): rescued spine nSOC | spine nSOC ([1]; wild-type spines, 300 nM): no significant effect | mushroom spines ([2]; PS1KI and APPKI neurons, 30 nM for 16 hr): complete rescue | mushroom spine loss ([2]; PS1KI cultures infected with control RNAi lentiviruses): rescued mushroom spine loss | mushroom spine loss ([2]; PS1KI hippocampal neurons following knockdown of TRPC6 or Orai2): failed to rescue mushroom spine loss | mushroom spine loss ([2]; wild-type neurons with knockdown of TRPC6 or Orai2): failed to rescue | fraction of mushroom spines ([2]; wild-type neurons, 30 nM for 16 hr): no significant effect | Ca2+ influx ([3]; TRPC6-transfected HEK293 cells, 2 mM Ca2+): activated Ca^2+ influx | Ca2+ influx ([3]; control HEK293 cells transfected with EGFP plasmid): not in control cells | toxicity, acute [4]: very large Ca^2 elevations and toxicity | toxicity, overnight [4]: neuronal toxicity in some batches | beta-amyloid neurotoxicity and spatial memory impairments [5]: able to prevent

Ca2+ influx response ([3]; standard recording conditions (data not shown)): highly variable responses | Ca2+ influx response ([3]; stores partially depleted by 0.1 mM Ca2+ preincubation): more consistent responses
Compound: CCCCCCCC/C=C/CCCCCCCC(=O)OCC(CO)OC(C)=O (stereo not shown) [OAG]
Ca2+ responses in spines ([1]; direct application to hippocampal neuronal cultures (data not shown)): induced Ca^2+ responses in just a few spines

Compound: tetrahydrohyperforin [IDN5706]
Aβ-induced synaptic plasticity defects [6]: rescued
